Source: US20250332173A1, “COMPOUNDS AND METHODS FOR MODULATING NUCLEIC ACID SPLICING” (REMIX THERAPEUTICS INC., priority 2021, published 2025)
Read-outs that look alike come from different tables or passages of the source.

How the values were obtained:
HTT mRNA = experiment: RT-qPCR splicing assay, HTT canonical junction (CJ) and alternative junction (AJ) mRNA; type: cell-based, human; details: Homo sapiens; for AC50: increase in HTT alternative junction (AJ) mRNA, read-out: HTT AJ AC50
Method in brief: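 Read-out is one-step RT-qPCR on cell lysates detecting the exon-exon junction of each isoform, normalized to a housekeeping gene (PPIA in A673, GAPDH or GUSB in K562).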

SMN2 mRNA = experiment: RT-qPCR splicing assay, SMN2 canonical junction (CJ) mRNA; type: cell-based, human; details: Homo sapiens; Table 5 panel; canonical junction qPCR; compound concentration having 50% response in CJ decrease; read-out: SMN2 IC50 (decrease in CJ mRNA levels)
Method in brief: (§1)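 Canonical-junction transcript levels in compound-treated A673 or K562 cells (24 h, up to 10 uM final) were determined from lysates by RT-qPCR with housekeeping-gene normalization.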

Target C = experiment: RT-qPCR splicing assay panel, Target C canonical junction (CJ) mRNA; type: cell-based, human; details: Homo sapiens; Table 5 panel; canonical junction qPCR; compound concentration having 50% response in CJ decrease; read-out: Target C IC50 (decrease in CJ mRNA levels)
Method in brief: as §1

[1] = test system: K562 (human chronic myelogenous leukemia) cells; experiment: Cell Titer Glo 2.0 cell viability assay; type: cell-based; details: Homo sapiens, K562, 72 h, K562 cells, 72 hours, Cell Titer Glo 2.0; read-out: K562 GI50
[2] = decrease in HTT canonical junction (CJ) mRNA, RT-qPCR, read-out: HTT CJ IC50
[3] = Table 5 panel, canonical junction qPCR, compound concentration having 50% response in CJ decrease, read-out: HTT IC50 (decrease in CJ mRNA levels)

Structure (SMILES)	IC50 (HTT mRNA; [2])	IC50 (HTT mRNA; [3])	IC50 (SMN2 mRNA)	IC50 (Target C)	GI50 [1]	AC50 (HTT mRNA; RT-qPCR)
Cc1cn2nc(-c3cc(C)c4c(=O)n(C5CCNC6(CC6)C5)ncc4c3)cc(C)c2n1 (stereo not drawn) [Compound 423, 6-(2,8-dimethylimidazo[1,2-b]pyridazin-6-yl)-8-methyl-2-(4-azaspiro[2.5]octan-7-yl)phthalazin-1(2H)-one]	< 100 nM	< 100 nM	< 100 nM	100 to 1000 nM	100 to 1000 nM	< 100 nM
Cc1cn2cc(-c3cc(F)c4c(=O)n(C5CCNC6(CC6)C5)ccc4c3)ncc2n1 (stereo not drawn) [Compound 428, 8-fluoro-6-(2-methylimidazo[1,2-a]pyrazin-6-yl)-2-(4-azaspiro[2.5]octan-7-yl)isoquinolin-1(2H)-one]	1000 to 10000 nM	1000 to 10000 nM	< 100 nM	1000 to 10000 nM	1000 to 10000 nM	1000 to 10000 nM
Cc1cn2nc(-c3cc(O)c4c(=O)n(C5CCNC5)ccc4c3)cc(C)c2n1 (stereo not drawn) [Compound 432, 6-{2,8-dimethylimidazo[1,2-b]pyridazin-6-yl}-8-hydroxy-2-(pyrrolidin-3-yl)isoquinolin-1-one]	1000 to 10000 nM	1000 to 10000 nM	< 100 nM	1000 to 10000 nM	1000 to 10000 nM	1000 to 10000 nM
Cc1cn2cc(-c3cc(O)c4c(=O)n(C5CCNC5)ccc4c3)cc(C#N)c2n1 (stereo not drawn) [Compound 433, 6-(8-hydroxy-1-oxo-2-(pyrrolidin-3-yl)-1,2-dihydroisoquinolin-6-yl)-2-methylimidazo[1,2-a]pyridine-8-carbonitrile]	> 10000 nM	> 10000 nM	< 100 nM	100 to 1000 nM	1000 to 10000 nM	> 10000 nM
Cc1cn2cc(-c3cc(F)c4c(=O)n(C5CCNC5)ccc4c3)cc(C#N)c2n1 (stereo not drawn) [Compound 434, 6-[8-fluoro-1-oxo-2-(pyrrolidin-3-yl)isoquinolin-6-yl]-2-methylimidazo[1,2-a]pyridine-8-carbonitrile]	> 10000 nM	> 10000 nM	< 100 nM	> 10000 nM	1000 to 10000 nM	> 10000 nM
Cc1cn2cc(-c3ccc4c(=O)n(C5CCNCC5)cc(C)c4c3)cc(F)c2n1 [Compound 440, 6-{8-fluoro-2-methylimidazo[1,2-a]pyridin-6-yl}-4-methyl-2-(piperidin-4-yl)isoquinolin-1-one]	100 to 1000 nM	100 to 1000 nM	< 100 nM	100 to 1000 nM	< 100 nM	100 to 1000 nM
Cc1cn2cc(-c3ccc4c(=O)n(C5CCNC5)cc(C)c4c3)cc(F)c2n1 (stereo not drawn) [Compound 441, 6-{8-fluoro-2-methylimidazo[1,2-a]pyridin-6-yl}-4-methyl-2-(pyrrolidin-3-yl)isoquinolin-1-one]	> 10000 nM	> 10000 nM	100 to 1000 nM	> 10000 nM	1000 to 10000 nM	> 10000 nM
Cc1cn2cc(-c3ccc4c(=O)n(C5CCNC5)cc(C)c4c3)cc(C#N)c2n1 (stereo not drawn) [Compound 442, 2-methyl-6-[4-methyl-1-oxo-2-(pyrrolidin-3-yl)isoquinolin-6-yl]imidazo[1,2-a]pyridine-8-carbonitrile]	> 10000 nM	> 10000 nM	1000 to 10000 nM	> 10000 nM	> 10000 nM	> 10000 nM
Cc1cn2nc(-c3ccc4c(=O)n([C@H]5CCNC6(CC6)C5)ccc4c3)cc(C)c2n1 [Compound 445]	< 100 nM	< 100 nM	< 100 nM	< 100 nM	< 100 nM	< 100 nM
Cc1cn2nc(-c3cc(F)c4c(=O)n([C@@H]5CCNC6(CC6)C5)ncc4c3)cc(C)c2n1 [Compound 446]	< 100 nM	< 100 nM	< 100 nM	< 100 nM	100 to 1000 nM	< 100 nM
Cc1cn2nc(-c3cc(F)c4c(=O)n([C@H]5CCNC6(CC6)C5)ncc4c3)cc(C)c2n1 [Compound 447]	< 100 nM	< 100 nM	< 100 nM	< 100 nM	100 to 1000 nM	< 100 nM
Cc1cn2nc(-c3cc4ccn(C5CCNCC5)c(=O)c4cc3O)cc(C)c2n1 [Compound 448, 6-{2,8-dimethylimidazo[1,2-b]pyridazin-6-yl}-7-hydroxy-2-(piperidin-4-yl)isoquinolin-1-one]	< 100 nM	< 100 nM	< 100 nM	< 100 nM	< 100 nM	< 100 nM
COc1cc2c(=O)n(C3CCNCC3)ccc2cc1-c1cc(C)c2nc(C)cn2n1 [Compound 449, 6-{2,8-dimethylimidazo[1,2-b]pyridazin-6-yl}-7-methoxy-2-(piperidin-4-yl)isoquinolin-1-one]	> 10000 nM	> 10000 nM	> 10000 nM	> 10000 nM	> 10000 nM	> 10000 nM

Continued, in another order:

IC50 (HTT mRNA; [2])	IC50 (HTT mRNA; [3])	IC50 (SMN2 mRNA)	IC50 (Target C)	GI50 [1]	Structure (SMILES)	AC50 (HTT mRNA; RT-qPCR)
1000 to 10000 nM	1000 to 10000 nM	100 to 1000 nM	> 10000 nM	> 10000 nM	Cn1cc2cc(-c3cc(F)c4c(=O)n(C5CCNC6(CC6)C5)ccc4c3)c(O)cc2n1 (stereo not drawn) [Compound 414, 2-{4-azaspiro[2.5]octan-7-yl}-8-fluoro-6-(6-hydroxy-2-methylindazol-5-yl)isoquinolin-1-one]	1000 to 10000 nM
< 100 nM	< 100 nM	< 100 nM	100 to 1000 nM	100 to 1000 nM	Cc1cc(-c2cc(F)c3c(=O)n(C4CCNC5(CC5)C4)ccc3c2)cc2cn(C)nc12 (stereo not drawn) [Compound 415, 2-{4-azaspiro[2.5]octan-7-yl}-6-(2,7-dimethylindazol-5-yl)-8-fluoroisoquinolin-1-one]	< 100 nM
100 to 1000 nM	100 to 1000 nM	< 100 nM	100 to 1000 nM	< 100 nM	Cc1cn2cc(-c3cc(F)c4c(=O)n(C5CCNC6(CC6)C5)ccc4c3)cc(C)c2n1 (stereo not drawn) [Compound 416, 2-{4-azaspiro[2.5]octan-7-yl}-6-{2,8-dimethylimidazo[1,2-a]pyridin-6-yl}-8-fluoroisoquinolin-1-one]	100 to 1000 nM
< 100 nM	< 100 nM	< 100 nM	100 to 1000 nM	< 100 nM	Cc1nc2c(F)cc(-c3cc(F)c4c(=O)n(C5CCNC6(CC6)C5)ccc4c3)cc2o1 (stereo not drawn) [Compound 417, 2-{4-azaspiro[2.5]octan-7-yl}-8-fluoro-6-(4-fluoro-2-methyl-1,3-benzoxazol-6-yl)isoquinolin-1-one]	< 100 nM
< 100 nM	< 100 nM	< 100 nM	100 to 1000 nM	100 to 1000 nM	Cc1nc2c(C)cc(-c3cc(F)c4c(=O)n(C5CCNC6(CC6)C5)ccc4c3)cc2o1 (stereo not drawn) [Compound 418, 2-{4-azaspiro[2.5]octan-7-yl}-6-(2,4-dimethyl-1,3-benzoxazol-6-yl)-8-fluoroisoquinolin-1-one]	< 100 nM
> 10000 nM	> 10000 nM	100 to 1000 nM	> 10000 nM	> 10000 nM	Cc1c(O)c(-c2cc(F)c3c(=O)n(C4CCNC5(CC5)C4)ccc3c2)cc2cn(C)nc12 (stereo not drawn) [Compound 419, 2-{4-azaspiro[2.5]octan-7-yl}-8-fluoro-6-(6-hydroxy-2,7-dimethylindazol-5-yl)isoquinolin-1-one]	> 10000 nM
1000 to 10000 nM	1000 to 10000 nM	< 100 nM	1000 to 10000 nM	1000 to 10000 nM	Cn1cc2cc(-c3cc(F)c4c(=O)n(C5CCNC6(CC6)C5)ccc4c3)c(O)c(F)c2n1 (stereo not drawn) [Compound 420, 2-{4-azaspiro[2.5]octan-7-yl}-8-fluoro-6-(7-fluoro-6-hydroxy-2-methylindazol-5-yl)isoquinolin-1-one]	1000 to 10000 nM
> 10000 nM	> 10000 nM	> 10000 nM	> 10000 nM	> 10000 nM	Cc1cn2cc(-c3cc(F)c4c(=O)n(C5CCNC6(CC6)C5)ccc4c3)c(O)c(C)c2n1 (stereo not drawn) [Compound 421, 2-{4-azaspiro[2.5]octan-7-yl}-8-fluoro-6-{7-hydroxy-2,8-dimethylimidazo[1,2-a]pyridin-6-yl}isoquinolin-1-one]	> 10000 nM
> 10000 nM	> 10000 nM	> 10000 nM	> 10000 nM	1000 to 10000 nM	Cc1cc(-c2cc(F)c3c(=O)n(C4CCNC5(CC5)C4)ccc3c2)cc2c1nc(C)n2C (stereo not drawn) [Compound 429]	> 10000 nM
> 10000 nM	> 10000 nM	100 to 1000 nM	> 10000 nM	1000 to 10000 nM	Cc1nc2c(F)cc(-c3cc(F)c4c(=O)n(C5CCNC6(CC6)C5)ccc4c3)cc2n1C (stereo not drawn) [Compound 430, 8-fluoro-6-(4-fluoro-1,2-dimethyl-1H-benzo[d]imidazol-6-yl)-2-(4-azaspiro[2.5]octan-7-yl)isoquinolin-1(2H)-one]	> 10000 nM
< 100 nM	< 100 nM	< 100 nM	100 to 1000 nM	100 to 1000 nM	Cc1cc(-c2cc(F)c3c(=O)n(C4CCNC5(CC5)C4)ccc3c2)nc2cn(C)nc12 (stereo not drawn) [Compound 431]	< 100 nM
